In PubChem BioAssay (NCI):
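48-hour exposure; five concentrations; linearly interpolated endpoints. GI50 marks 50% less growth. TGI marks complete inhibition of growth.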

Assays:
Assay in all cases: inhibition of tumour cell growth, NCI panel, 48 h
786-0 renal = tested on: 786-0 renal
A498 renal = tested on: A498 renal
A549 NSCLC = tested on: A549 NSCLC
ACHN renal = tested on: ACHN renal
CAKI-1 renal = tested on: CAKI-1 renal
CCRF-CEM leukemia = tested on: CCRF-CEM leukemia
COLO 205 colon = tested on: COLO 205 colon
DU-145 prostate = tested on: DU-145 prostate
EKVX NSCLC = tested on: EKVX NSCLC
HCC-2998 colon = tested on: HCC-2998 colon
HCT-116 colon = tested on: HCT-116 colon
HCT-15 colon = tested on: HCT-15 colon
HL-60(TB) leukemia = tested on: HL-60(TB) leukemia
HOP-92 NSCLC = tested on: HOP-92 NSCLC
HS 578T breast = tested on: HS 578T breast
IGROV1 ovarian = tested on: IGROV1 ovarian
K-562 leukemia = tested on: K-562 leukemia
KM12 colon = tested on: KM12 colon
LOX IMVI melanoma = tested on: LOX IMVI melanoma
M14 melanoma = tested on: M14 melanoma
MALME-3M melanoma = tested on: MALME-3M melanoma
MCF7 breast = tested on: MCF7 breast
MDA-MB-231 breast = tested on: MDA-MB-231 breast
MDA-MB-435 = tested on: MDA-MB-435
MOLT-4 leukemia = tested on: MOLT-4 leukemia
NCI-H226 lung = tested on: NCI-H226 lung
NCI-H23 lung = tested on: NCI-H23 lung
NCI-H460 lung = tested on: NCI-H460 lung
OVCAR-3 ovarian = tested on: OVCAR-3 ovarian
OVCAR-4 ovarian = tested on: OVCAR-4 ovarian
OVCAR-5 ovarian = tested on: OVCAR-5 ovarian
OVCAR-8 ovarian = tested on: OVCAR-8 ovarian
PC-3 prostate = tested on: PC-3 prostate
RXF 393 renal = tested on: RXF 393 renal
SF-268 CNS = tested on: SF-268 CNS
SF-295 CNS = tested on: SF-295 CNS
SF-539 CNS = tested on: SF-539 CNS
SK-MEL-2 melanoma = tested on: SK-MEL-2 melanoma
SK-MEL-28 melanoma = tested on: SK-MEL-28 melanoma
SK-MEL-5 melanoma = tested on: SK-MEL-5 melanoma
SK-OV-3 ovarian = tested on: SK-OV-3 ovarian
SN12C renal = tested on: SN12C renal
SNB-19 CNS = tested on: SNB-19 CNS
SNB-75 CNS = tested on: SNB-75 CNS
SR leukemia = tested on: SR leukemia
SW-620 colon = tested on: SW-620 colon
T-47D breast = tested on: T-47D breast
TK-10 renal = tested on: TK-10 renal
U251 CNS = tested on: U251 CNS
UACC-257 melanoma = tested on: UACC-257 melanoma
UACC-62 melanoma = tested on: UACC-62 melanoma
UO-31 renal = tested on: UO-31 renal
HOP-62 NSCLC = tested on: HOP-62 NSCLC
NCI-H522 lung = tested on: NCI-H522 lung
NCI/ADR-RES ovarian = tested on: NCI/ADR-RES ovarian
RPMI-8226 leukemia = tested on: RPMI-8226 leukemia

## CC(C)(C)n1cc(-c2ccnc(NCCCNS(=O)(=O)c3cccc4ccccc34)c2)c(-c2cccc(O)c2)n1
786-0 renal
  GI50: 2.09 µM
  TGI: 5.12 µM
A498 renal
  GI50: 1.37 µM
  TGI: 5.1 µM
A549 NSCLC
  GI50: 2.29 µM
  TGI: 5.99 µM
ACHN renal
  GI50: 2.7 µM
  TGI: 7.25 µM
CAKI-1 renal
  GI50: 2.49 µM
  TGI: 7.04 µM
CCRF-CEM leukemia
  GI50: 2.44 µM
  TGI: > 100 µM
COLO 205 colon
  GI50: 1.89 µM
  TGI: 3.72 µM
DU-145 prostate
  GI50: 2.65 µM
  TGI: 7.45 µM
EKVX NSCLC
  GI50: 2.13 µM
  TGI: 6.32 µM
HCC-2998 colon
  GI50: 1.87 µM
  TGI: 3.37 µM
HCT-116 colon
  GI50: 1.4 µM
  TGI: 2.89 µM
HCT-15 colon
  GI50: 1.53 µM
  TGI: 3.64 µM
HL-60(TB) leukemia
  GI50: 2.68 µM
  TGI: 7.26 µM
HOP-92 NSCLC
  GI50: 1.71 µM
  TGI: 5.07 µM
HS 578T breast
  GI50: 1.89 µM
  TGI: 4.8 µM
IGROV1 ovarian
  GI50: 2.14 µM
  TGI: 4.68 µM
K-562 leukemia
  GI50: 1.48 µM
  TGI: > 100 µM
KM12 colon
  GI50: 2.34 µM
  TGI: 5.42 µM
LOX IMVI melanoma
  GI50: 1.73 µM
  TGI: 3.28 µM
M14 melanoma
  GI50: 1.68 µM
  TGI: 3.21 µM
MALME-3M melanoma
  GI50: 1.51 µM
  TGI: 3.18 µM
MCF7 breast
  GI50: 1.91 µM
  TGI: 4.06 µM
MDA-MB-231 breast
  GI50: 2.32 µM
  TGI: 5.64 µM
MDA-MB-435
  GI50: 1.76 µM
  TGI: 3.37 µM
MOLT-4 leukemia
  GI50: 2 µM
  TGI: 5.5 µM
NCI-H226 lung
  GI50: 1.97 µM
  TGI: 4.36 µM
NCI-H23 lung
  GI50: 1.78 µM
  TGI: 3.84 µM
NCI-H460 lung
  GI50: 1.93 µM
  TGI: 3.8 µM
OVCAR-3 ovarian
  GI50: 2.06 µM
  TGI: 4.22 µM
OVCAR-4 ovarian
  GI50: 1.92 µM
  TGI: 4.75 µM
OVCAR-5 ovarian
  GI50: 1.98 µM
  TGI: 4.06 µM
OVCAR-8 ovarian
  GI50: 2.38 µM
  TGI: 6.28 µM
PC-3 prostate
  GI50: 1.85 µM
  TGI: 5.57 µM
RXF 393 renal
  GI50: 1.52 µM
  TGI: 3.06 µM
SF-268 CNS
  GI50: 2.77 µM
  TGI: 8.02 µM
SF-295 CNS
  GI50: 1.8 µM
  TGI: 3.52 µM
SF-539 CNS
  GI50: 1.83 µM
  TGI: 3.52 µM
SK-MEL-2 melanoma
  GI50: 1.88 µM
  TGI: 4.06 µM
SK-MEL-28 melanoma
  GI50: 1.67 µM
  TGI: 3.24 µM
SK-MEL-5 melanoma
  GI50: 1.51 µM
  TGI: 2.85 µM
SK-OV-3 ovarian
  GI50: 2.63 µM
  TGI: 7.23 µM
SN12C renal
  GI50: 1.73 µM
  TGI: 3.33 µM
SNB-19 CNS
  GI50: 2.63 µM
  TGI: 7.21 µM
SNB-75 CNS
  GI50: 1.88 µM
  TGI: 5.48 µM
SR leukemia
  GI50: 1.4 µM
  TGI: 5.65 µM
SW-620 colon
  GI50: 1.81 µM
  TGI: 3.62 µM
T-47D breast
  GI50: 2.22 µM
  TGI: 6.18 µM
TK-10 renal
  GI50: 2.85 µM
  TGI: 9.73 µM
U251 CNS
  GI50: 1.73 µM
  TGI: 3.87 µM
UACC-257 melanoma
  GI50: 2.07 µM
  TGI: 4.39 µM
UACC-62 melanoma
  GI50: 1.67 µM
  TGI: 3.28 µM
UO-31 renal
  GI50: 2.26 µM
  TGI: 7.97 µM

## Cc1ccc(-c2ccc3c(c2)Sc2ccccc2O3)n1C
786-0 renal
  TGI: > 100 µM
A498 renal
  TGI: 34 µM
A549 NSCLC
  TGI: > 100 µM
ACHN renal
  TGI: > 100 µM
CAKI-1 renal
  TGI: > 73.1 µM
CCRF-CEM leukemia
  TGI: 3.95 µM
COLO 205 colon
  TGI: 2.12 µM
DU-145 prostate
  TGI: > 41.5 µM
EKVX NSCLC
  TGI: > 88.3 µM
HCC-2998 colon
  TGI: 0.625 µM
HCT-116 colon
  TGI: > 100 µM
HCT-15 colon
  TGI: > 100 µM
HL-60(TB) leukemia
  TGI: 0.261 µM
HOP-62 NSCLC
  TGI: > 100 µM
HOP-92 NSCLC
  TGI: > 100 µM
HS 578T breast
  TGI: > 100 µM
IGROV1 ovarian
  TGI: 1.2 µM
K-562 leukemia
  TGI: > 100 µM
KM12 colon
  TGI: > 43.2 µM
LOX IMVI melanoma
  TGI: > 100 µM
M14 melanoma
  TGI: > 65.4 µM
MALME-3M melanoma
  TGI: 50 µM
MDA-MB-231 breast
  TGI: > 100 µM
MOLT-4 leukemia
  TGI: > 67.8 µM
NCI-H226 lung
  TGI: > 100 µM
NCI-H23 lung
  TGI: > 100 µM
NCI-H460 lung
  TGI: > 36.5 µM
NCI-H522 lung
  TGI: 0.373 µM
NCI/ADR-RES ovarian
  TGI: 12.6 µM
OVCAR-3 ovarian
  TGI: > 100 µM
OVCAR-4 ovarian
  TGI: > 100 µM
OVCAR-5 ovarian
  TGI: > 52.9 µM
OVCAR-8 ovarian
  TGI: > 100 µM
RPMI-8226 leukemia
  TGI: 0.706 µM
RXF 393 renal
  TGI: 11.4 µM
SF-268 CNS
  TGI: > 33.9 µM
SF-295 CNS
  TGI: 0.799 µM
SK-MEL-2 melanoma
  TGI: 4.26 µM
SK-MEL-28 melanoma
  TGI: > 100 µM
SK-MEL-5 melanoma
  TGI: 39.1 µM
SK-OV-3 ovarian
  TGI: > 100 µM
SN12C renal
  TGI: 7.88 µM
SNB-19 CNS
  TGI: > 100 µM
SR leukemia
  TGI: > 100 µM
SW-620 colon
  TGI: > 100 µM
T-47D breast
  TGI: > 100 µM
TK-10 renal
  TGI: > 100 µM
U251 CNS
  TGI: > 100 µM
UACC-257 melanoma
  TGI: > 100 µM
UO-31 renal
  TGI: > 68.5 µM
